Patent publication US20260335468A1, “MOLECULAR RADIOAFTERGLOW PROBES FOR CANCER RADIODYNAMIC THERANOSTICS” (NANYANG TECHNOLOGICAL UNIVERSITY, priority 2023, published 2026)

What was measured:
[1] = Radio afterglow spectra, intensity and half-life of luminophores in PBS after X-ray; format: physicochemical; conditions: for radio afterglow brightness / intensity: X-ray irradiation; for radio afterglow intensity increase versus iodine-free counterpart: 100 μM, PBS pH 7.4, 50% DMSO, X-ray 5 mGy
Experimental: The optical properties of DPAs and IDPAs were investigated in an aqueous solution (FIGS. 2 and 3). […] Their half-lives ranged from 9.2 to 196.8 min (FIG. 4e).
DPAs or IDPAs (100 μM) in 0.01 M PBS (pH 7.4, 50% DMSO) were irradiated by X-rays at 250 μGy s^−1 for 20 s (total, 5 mGy) under the specific setup parameter of 10 kV and 75 μA. Then, the radio afterglow signal was collected with an IVIS imaging system under the bioluminescence mode with an open filter and an acquisition time of 60 s. Finally, the radio afterglow intensities were quantified by a region-of-interest analysis using Living Image 4.3 software. In addition, the radio afterglow spectra of the candidates were acquired under the same test conditions with specific emission filters, and time courses of the signal were recorded as a function of time.

[2] = ^1O2 generation upon X-ray irradiation (ESR, TEMP trap); format: physicochemical; conditions: for ^1O2 generation / radiodynamic activity: X-ray irradiation, ESR
Experimental: To study ^1O2 generation, a mixture of DPAS or IDPAS (100 M) and TEMP (10 mM) in PBS (0.01 M, pH 7.4, 50% DMSO) was irradiated by X-rays at 2 Gy (100 mGy s^−1 for 20 s) or 5 mGy (250 μGy s^−1 for 20 s). The ESR signals of the mixture were recorded with a Bruker A300 instrument. The ESR signal of the free radical 2,2,6,6-tetramethyl-1-piperidinyloxyl (g=2.0060) was generated by the reaction of ^1O2 with TEMP. The ^1O2 quencher NaN3 (1 mM) was added to validate the afterglow mechanism of IDPASu. Additionally, other commercially available radio sensitizers (such as acridine orange, hematoporphyrin and verteporfin) were measured and compared. The procedure of block depths was similar to that of the tissue penetration depth study and the ^1O2 generation for different depth tissues was measured. The ESR signal changes of MRAP in the absence or presence of CatB were measured in a similar way. The ESR signals of 2,2,6,6-tetramethyl-1-piperidinyloxyl from the reaction of ^1O2 with TEMP were plotted as a function of the concentration of ^1O2, which was generated by the addition of NaOCl to H2O2. This generated the standard curve between the ESR intensity and ^1O2 concentration.

Row | Structure (SMILES) | radio afterglow brightness / intensity [1] | ^1O2 generation / radiodynamic activity [2] | ^1O2 generation versus that of IDPAs ([2]; X-ray 5 mGy) | radio afterglow intensity increase versus iodine-free counterpart [1]
1 | COC(=C1C2CC3CC(C2)CC1C3)c1c(/C=C/C2=CC(=C(C#N)C#N)c3ccccc3O2)cc(I)c(O)c1I [DIDPAO] | extremely low | slightly increase |  | 
2 | COC(=C1C2CC3CC(C2)CC1C3)c1c(/C=C/C2=CC(=C(C#N)C#N)c3ccccc3S2)cc(I)c(O)c1I [DIDPAS] | extremely low | slightly increase | ~ 1.2 fold | 
3 | COC(=C1C2CC3CC(C2)CC1C3)c1cc(O)c(I)cc1/C=C/C1=CC(=C(C#N)C#N)c2ccccc2O1 [IDPAO] |  |  |  | ~ 1.62 fold
4 | COC(=C1C2CC3CC(C2)CC1C3)c1cc(O)c(I)cc1/C=C/C1=CC(=C(C#N)C#N)c2ccccc2[Se]1 [IDPASe] |  |  |  | 6.65 fold
5 | COC(=C1C2CC3CC(C2)CC1C3)c1cc(O)ccc1/C=C/C1=CC(=C(C#N)C#N)c2ccccc2S1 [DPASu, DBTP-phenoxy-adamantylidene] |  | generation of ^1O2 |  | 
